Values of other authors, collected in patent US7361789B1, “Dihydronaphthalene compounds, compositions, uses thereof, and methods for synthesis” (Amgen Inc., priority 2004, dated 2008).
Read-outs that look alike come from different tables or passages of the source.

In the case of `C[C@@H](NCCCc1cccc(C(F)(F)F)c1)c1cccc2ccccc12` [cinacalcet], the solubility in water (neutral pH) is given as “less than 1 μg/mL”, the solubility (pH is about 1) is given as “about 0.1 mg/mL” and the solubility (pH ranges from about 3 to about 5) is given as “about 1.6 mg/mL”.
